Measurements taken from patent publication US11155557B2, “Pyrazolopyrimidine compounds and methods of use thereof” (Genentech, Inc., priority 2016, dated 2021).
Like-named read-outs stand apart in the source and are kept apart here.

Experiments:
[1] = target: isolated recombinant JAK1 kinase domain (Homo sapiens (Human), UniProt P23458); test: JAK1 enzyme assay (Caliper LabChip, Ki); type: biochemical
Protocol: The activity of the isolated recombinant JAK1 and JAK2 kinase domain was measured by monitoring phosphorylation of a peptide derived from JAK3 ([…] fluorescently labeled on the N-terminus with 5-carboxyfluorescein) using the Caliper LabChip R technology (Caliper Life Sciences, Hopkinton, Mass.).

[2] = system: JAK1-dependent STAT6 phosphorylation in BEAS-2B human bronchial epithelial cells; test: JAK1 pathway assay: IL-13 stimulated STAT6 phosphorylation in BEAS-2B cells; type: cell-based; settings: BEAS-2B cells, IL-13 stimulation, read-out: IL-13 p-STAT6 BEAS-2B IC50
Protocol: JAK1 Pathway Assay in Cell Lines was Carried Out as Follows:
Inhibitor potency (EC50) was determined in cell-based assays designed to measure JAK1 dependent STAT phosphorylation.
In one assay approach, TF-1 human erythroleukemia cells obtained from the American Type Culture Collection (ATCC; Manassas, Va.) were used to measure JAK1-dependent STAT6 phosphorylation downstream of IL-13 stimulation. Prior to use in the assays, TF-1 cells were starved of GM-CSF overnight in OptiMEM medium (Life Technologies, Grand Island, N.Y.) supplemented with 0.5% charcoal/dextran stripped fetal bovine serum (FBS), 0.1 mM non-essential amino acids (NEAA), and 1 mM sodium pyruvate. The assays were run in 384-well plates in serum-free OptiMEM medium using 300,000 cells per well. In a second assay approach, BEAS-2B human bronchial epithelial cells obtained from ATCC were plated at 100,000 cells per well of a 96-well plate one day prior to the experiment. The BEAS-2B assay was run in complete growth medium (bronchial epithelial basal medium plus bulletkit; Lonza; Basel, Switzerland).
Test compounds were serially diluted 1:2 in DMSO and then diluted 1:50 in medium just before use. Diluted compounds were added to the cells, for a final DMSO concentration of 0.2%, and incubated for 30 min (for the TF-1 assay) or 1 hr (for the BEAS-2B assay) at 37° C. Then, cells were stimulated with human recombinant cytokine at their respective EC90 concentrations, as previously determined for each individual lot. Cells were stimulated with IL-13 (R&D Systems, Minneapolis, Minn.) for 15 min at 37° C. […] The resultant samples were frozen in the plates at −80° C. Compound mediated inhibition of STAT6 phosphorylation was measured in the cell lysates using MesoScale Discovery (MSD) technology (Gaithersburg, Md.).

[3] = target: isolated recombinant JAK2 kinase domain (Homo sapiens (Human), UniProt O60674); test: JAK2 enzyme assay (Caliper LabChip, Ki)
Sequence of isolated recombinant JAK2 kinase domain (O60674 849-1124): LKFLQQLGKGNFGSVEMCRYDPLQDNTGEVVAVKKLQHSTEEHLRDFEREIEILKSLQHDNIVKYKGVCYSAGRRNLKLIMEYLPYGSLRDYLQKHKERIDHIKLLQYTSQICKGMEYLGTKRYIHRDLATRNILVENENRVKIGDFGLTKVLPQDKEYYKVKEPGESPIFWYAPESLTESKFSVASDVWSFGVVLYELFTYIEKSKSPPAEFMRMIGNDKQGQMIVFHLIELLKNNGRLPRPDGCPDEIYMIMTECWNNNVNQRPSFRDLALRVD
Protocol: JAK Enzyme Assays were Carried Out as Follows:
The activity of the isolated recombinant JAK1 and JAK2 kinase domain was measured by monitoring phosphorylation of a peptide derived from JAK3 ([sequence] fluorescently labeled on the N-terminus with 5-carboxyfluorescein) using the Caliper LabChip R technology (Caliper Life Sciences, Hopkinton, Mass.). […] After termination of the kinase reaction, the proportion of phosphorylated product was determined as a fraction of total peptide substrate using the Caliper LabChip R 3000 according to the manufacturer's specifications.

Sequence of isolated recombinant JAK1 kinase domain (P23458 875-1153): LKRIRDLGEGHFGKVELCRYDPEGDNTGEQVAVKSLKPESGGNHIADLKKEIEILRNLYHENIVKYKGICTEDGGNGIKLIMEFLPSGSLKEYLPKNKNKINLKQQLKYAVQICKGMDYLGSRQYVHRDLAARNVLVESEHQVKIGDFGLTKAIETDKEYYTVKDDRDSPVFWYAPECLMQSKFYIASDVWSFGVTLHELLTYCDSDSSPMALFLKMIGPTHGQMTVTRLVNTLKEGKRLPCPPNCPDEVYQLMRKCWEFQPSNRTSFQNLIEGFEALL

Compound	Ki [1]	Ki ([3]; read-out: JAK2 Ki)	Ki ([1]; formic acid)	Ki ([3]; read-out: JAK2 Ki, formic acid)	Ki [3]	IC50 ([2]; Homo sapiens, BEAS-2B)	IC50 ([2]; formic acid)	IC50 [2]
O=C(Nc1c[nH]nc1-c1cc2c(cc1OC(F)F)CCCO2)c1cnn2cccnc12 [Example 17, N-[3-[6-(difluoromethoxy)-3,4-dihydro-2H-1-benzopyran-7-yl]-H-pyrazol-4-yl]pyrazolo[1,5-a]pyrimidine-3-carboxamide]	0.32 nM	0.14 nM				14 nM		
NCC1CNc2cc(OC(F)F)c(-c3n[nH]cc3NC(=O)c3cnn4cccnc34)cc2S1 (racemic) [Example 38, N-[3-[2-(aminomethyl)-6-(difluoromethoxy)-3,4-dihydro-2H-1,4-benzothiazin-7-yl]-1H-pyrazol-4-yl]pyrazolo[1,5-a]pyrimidine-3-carboxamide]	0.33 nM	0.29 nM				> 1000 nM		
O=C(Nc1c[nH]nc1-c1cc2c(cc1OC(F)F)SCCO2)c1cnn2cccnc12 [Example 151, N-(3-(6-(difluoromethoxy)-2,3-dihydrobenzo[b][1,4]oxathiin-7-yl)-1H-pyrazol-4-yl)pyrazolo[1,5-a]pyrimidine-3-carboxamide]	0.77 nM	0.25 nM				30 nM		
CCOC(=O)c1cc2cc(-c3n[nH]cc3NC(=O)c3cnn4cccnc34)c(OC)cc2s1 [Example 36, ethyl 6-methoxy-5-[4-(pyrazolo[1,5-a]pyrimidine-3-carbonylamino)-1H-pyrazol-3-yl]benzothiophene-2-carboxylate]	0.65 nM	0.49 nM				32 nM		
COc1cc2c(cc1-c1n[nH]cc1NC(=O)c1cnn3cccnc13)CCC2 [Example 27, N-[3-(6-methoxyindan-5-yl)-1H-pyrazol-4-yl]pyrazolo[1,5-a]pyrimidine-3-carboxamide]	0.89 nM	0.34 nM				6 nM		
O=C(Nc1cn(Cc2ncco2)nc1-c1cc2c(cc1OC(F)F)NCCO2)c1cnn2cccnc12 [Example 123, N-[3-[6-(difluoromethoxy)-3,4-dihydro-2H-1,4-benzoxazin-7-yl]-1-(oxazol-2-ylmethyl)pyrazol-4-yl]pyrazolo[1,5-a]pyrimidine-3-carboxamide]	0.36 nM	0.28 nM				24 nM		
O=C(Nc1cn(C2CCCNC2)nc1-c1cc2ccccc2cc1OC(F)F)c1cnn2cccnc12 (racemic) [Example 5, N-(3-(3-(difluoromethoxy)naphthalen-2-yl)-1-(piperidin-3-yl)-1H-pyrazol-4-yl)pyrazolo[1,5-a]pyrimidine-3-carboxamide]	1.21 nM	0.78 nM				31 nM		
C[C@H]1CNc2cc(OC(F)F)c(-c3n[nH]cc3NC(=O)c3cnn4cccnc34)cc2O1 [Example 148, (S)—N-(3-(6-(difluoromethoxy)-2-methyl-3,4-dihydro-2H-benzo[b][1,4]oxazin-7-yl)-1H-pyrazol-4-yl)pyrazolo[1,5-a]pyrimidine-3-carboxamide]	0.51 nM	0.17 nM				55 nM		
O=C(Nc1cn(C2CCOC2=O)nc1-c1cc2c(cc1OC(F)F)NCCO2)c1cnn2cccnc12 (single isomer, unassigned) [Example 146, N-[3-[6-(difluoromethoxy)-3,4-dihydro-2H-1,4-benzoxazin-7-yl]-1-(2-oxotetrahydrofuran-3-yl)pyrazol-4-yl]pyrazolo[1,5-a]pyrimidine-3-carboxamide; formic acid]			0.32 nM	0.29 nM			74 nM	
CN1CCC(n2cc(NC(=O)c3cnn4cccnc34)c(-c3cc4c(cc3OC(F)F)NCCS4)n2)C1=O (single isomer, unassigned) [Example 126, N-[3-[6-(difluoromethoxy)-3,4-dihydro-2H-1,4-benzothiazin-7-yl]-1-(1-methyl-2-oxo-pyrrolidin-3-yl)pyrazol-4-yl]pyrazolo[1,5-a]pyrimidine-3-carboxamide]	0.88 nM	0.43 nM						286 nM
COc1cc2cnccc2cc1-c1n[nH]cc1NC(=O)c1cnn2cccnc12 [Example 29, N-[3-(7-methoxy-6-isoquinolyl)-1H-pyrazol-4-yl]pyrazolo[1,5-a]pyrimidine-3-carboxamide]	0.84 nM	0.49 nM				85 nM		
CC(C)(C)OC(=O)N1CCN(C(=O)c2cc3cc(OC(F)F)c(-c4n[nH]cc4NC(=O)c4cnn5cccnc45)cc3s2)CC1 [Example 9, tert-Butyl 4-(5-(difluoromethoxy)-6-(4-(pyrazolo[1,5-a]pyrimidine-3-carboxamido)-1H-pyrazol-3-yl)benzo[b]thiophene-2-carbonyl)piperazine-1-carboxylate]	3.99 nM	2.85 nM				153 nM		
CC[C@@H](O)Cn1cc(NC(=O)c2cnn3cccnc23)c(-c2cc3c(cc2OC(F)F)NCCO3)n1 [Example 121, N-[3-[6-(difluoromethoxy)-3,4-dihydro-2H-1,4-benzoxazin-7-yl]-1-[(2R)-2-hydroxybutyl]pyrazol-4-yl]pyrazolo[1,5-a]pyrimidine-3-carboxamide]	0.41 nM				0.45 nM	38 nM		

Continued, in another order:

Ki [1]	Ki ([3]; read-out: JAK2 Ki)	Ki ([1]; formic acid)	Ki ([3]; read-out: JAK2 Ki, formic acid)	Ki [3]	Compound	IC50 ([2]; Homo sapiens, BEAS-2B)	IC50 ([2]; formic acid)	IC50 [2]
0.19 nM	0.14 nM				Cn1nnnc1Cn1cc(NC(=O)c2cnn3cccnc23)c(-c2cc3c(cc2OC(F)F)NCCO3)n1 [Example 135, N-[3-[6-(difluoromethoxy)-3,4-dihydro-2H-1,4-benzoxazin-7-yl]-1-[(1-methyltetrazol-5-yl)methyl]pyrazol-4-yl]pyrazolo[1,5-a]pyrimidine-3-carboxamide]	26 nM		
0.22 nM	0.23 nM				O=C(Nc1cn(CC(=O)N2CCC(CN3CCOCC3)CC2)nc1-c1cc2c(cc1OC(F)F)NCCS2)c1cnn2cccnc12 [Example 59, N-[3-[6-(difluoromethoxy)-3,4-dihydro-2H-1,4-benzothiazin-7-yl]-1-[2-[4-(morpholinomethyl)-1-piperidyl]-2-oxo-ethyl]pyrazol-4-yl]pyrazolo[1,5-a]pyrimidine-3-carboxamide]	25 nM		
0.2 nM	0.14 nM				CC1CNc2cc(OC(F)F)c(-c3nn(CC(=O)N4CC=CCC4)cc3NC(=O)c3cnn4cccnc34)cc2S1 (single isomer, unassigned) [Example 103, N-[3-[6-(difluoromethoxy)-2-methyl-3,4-dihydro-2H-1,4-benzothiazin-7-yl]-1-[2-(3,6-dihydro-2H-pyridin-1-yl)-2-oxo-ethyl]pyrazol-4-yl]pyrazolo[1,5-a]pyrimidine-3-carboxamide]	12 nM		
0.18 nM	0.34 nM				CN(C)C(=O)Cn1cc(NC(=O)c2cnn3cccnc23)c(-c2cc3c(cc2OC(F)F)NCCO3)n1 [Example 100, N-[3-[6-(difluoromethoxy)-3,4-dihydro-2H-1,4-benzoxazin-7-yl]-1-[2-(dimethylamino)-2-oxo-ethyl]pyrazol-4-yl]pyrazolo[1,5-a]pyrimidine-3-carboxamide]	39 nM		
0.14 nM	0.09 nM				Cn1nnc(Cn2cc(NC(=O)c3cnn4cccnc34)c(-c3cc4c(cc3OC(F)F)NCCS4)n2)n1 [Example 128, N-[3-[6-(difluoromethoxy)-3,4-dihydro-2H-1,4-benzothiazin-7-yl]-1-[(2-methyltetrazol-5-yl)methyl]pyrazol-4-yl]pyrazolo[1,5-a]pyrimidine-3-carboxamide]	7 nM		
0.12 nM	0.06 nM				Cn1nnnc1Cn1cc(NC(=O)c2cnn3cccnc23)c(-c2cc3c(cc2OC(F)F)NCCS3)n1 [Example 127, N-[3-[6-(difluoromethoxy)-3,4-dihydro-2H-1,4-benzothiazin-7-yl]-1-[(1-methyltetrazol-5-yl)methyl]pyrazol-4-yl]pyrazolo[1,5-a]pyrimidine-3-carboxamide]	14 nM		
0.11 nM	0.06 nM				Cc1cc2cc(OC(F)F)c(-c3n[nH]cc3NC(=O)c3cnn4cccnc34)cc2s1 [Example 25, N-(3-(5-(difluoromethoxy)-2-methylbenzo[b]thiophen-6-yl)-1H-pyrazol-4-yl)pyrazolo[1,5-a]pyrimidine-3-carboxamide]	5 nM		
0.19 nM	0.13 nM				CC1CNc2cc(OC(F)F)c(-c3nn(CC(=O)N(C)C)cc3NC(=O)c3cnn4cccnc34)cc2S1 (single isomer, unassigned) [Example 105, N-[3-[6-(difluoromethoxy)-2-methyl-3,4-dihydro-2H-1,4-benzothiazin-7-yl]-1-[2-(dimethylamino)-2-oxo-ethyl]pyrazol-4-yl]pyrazolo[1,5-a]pyrimidine-3-carboxamide]	24 nM		
